Source: patent publication US20230100941A1, “MOLECULES TARGETING MUTANT RAS PROTEIN” (AELIN THERAPEUTICS, priority 2020, published 2023)
Each block holds one compound with its values, some of them ahead of it. Ends that are not written are not given here.

Assays:
G12V mutant KRAS = biological target: T1, G12V mutant KRAS (Homo sapiens, UniProt P01116, G12V); experiment: In vitro translation assay with streptavidin pull-down of biotinylated pept-ins, Western blot for KRAS; type: binding; settings: 10 μM biotinylated pept-in
T1 construct: made in house; host or cells: cell-free: PURExpress In Vitro Protein Synthesis Kit (New England Biolabs), linear T7 PCR template
Method: (§1) In vitro translation assays were performed using the PURExpress® In Vitro Protein Synthesis Kit (New England Biolabs) according to the manufacturer's instructions. Briefly, linear DNA fragments containing T7 promotor and terminator sequences flanking the KRAS coding sequence were generated using PCR and purified using the MinElute PCR Purification Kit (Qiagen). 250 ng of linear DNA was subsequently used for the in vitro translation reaction, which was performed for 2 hours at 37° C. with shaking (1000 rpm). Indicated biotinylated pept-ins were mixed in the translation reactions from a 5 mM stock solution in 6M Urea to a final concentration of 10 μM. Upon completion of the translation reaction, biotinylated pept-ins were captured from the reaction mix using Streptavidin coated beads (Pierce) during 90 min at room temperature. Beads were next washed with TBS containing 0.1% Tween 20 and bound proteins were finally boiled off in 1×SDS loading dye (Bio-Rad) in TBS buffer. Proteins were resolved using Any kD 15-well Mini-PROTEAN gels (Bio-Rad) during SDS-PAGE and probed for KRAS after Western blotting using a mouse monoclonal KRAS-specific antibody (SC-30, Santa Cruz Biotechnology), which was detected with an HRP-coupled anti-mouse secondary antibody using chemiluminescence on a Bio-Rad Chemidoc MP imaging instrument.
(§2) To mimic this in vitro, we devised an in vitro translation setup producing either wild-type or mutant (G12V, G12C, G12D or G13D) KRAS in the presence of biotinylated RAS-targeting pept-ins. This allowed us to perform a streptavidin pull-down to capture the biotinylated pept-ins from the translation reaction and perform SDS-PAGE and Western blotting to probe the pulled-down fraction for the presence of KRAS. The biotinylated version of pept-in 04-004-N001, i.e. 04-004-N011, which harbours an APR window sequence derived from a wild-type APR, is predicted to target all RAS proteins independently from their mutation status.

G12C mutant KRAS = biological target: T2, G12C mutant KRAS (Homo sapiens, UniProt P01116, G12C); experiment: as above; type: binding; settings: 10 μM biotinylated pept-in
T2 construct: made in house; host or cells: cell-free: PURExpress In Vitro Protein Synthesis Kit (New England Biolabs), linear T7 PCR template
Method: as §1, §2

[1] = Single-dose viability screen on adherently growing (2D) NCI-H441 cells (CellTiter Blue); type: cell-based, human; settings: 25 μM single dose, adherent NCI-H441, compared to vehicle (30 mM Urea); read-out: decrease in viability after 4 days of exposure
Method: For the single-dose viability screen on adherent cells, 4000 cells were seeded per well in black μclear® Cellstar® F-bottom 96-well plates (Greiner) in 100 μL full growth medium. The day after seeding, growth medium was replaced with full growth medium containing the indicated pept-in at a fixed final dose of 25 μM. Technical duplicates were included for all experimental pept-in conditions. 2 and 4 days after treatment viability was assessed using the CellTiter Blue reagent (Promega) according to the manufacturer's instructions, with the following adaptation: CellTiter Blue reagent was diluted 1 in 2 in PBS. Readout was performed on a Clariostar plate reader (BMG). Dose-response assays were performed with the following adaptations: pept-ins were tested in dose-response using a 1 in 2 dilution series with 50 μM being the highest final concentration used. Furthermore, a single viability read-out was performed 3 days after treatment using the Celltiter Glo reagent (Promega) according to the manufacturer's instructions, with the following adaptation: CellTiter Glo reagent was diluted 1 in 4 in PBS.
To assess pept-in activity on the viability of RAS-mutant tumor cells, we used adherent NCI-H441 lung adenocarcinoma cells which harbor a G12V mutation in KRAS. To verify that this cell line was indeed dependent on KRAS for its growth, we used SAH-SOS-1A as a positive control. SAH-SOS-1A is a peptidic compound whose design is based on a stabilized helix from son of sevenless 1, the canonical guanine exchange factor for KRAS (Leshchiner et al. Proc Natl Acad Sci U S A. 2015, vol. 112(6), 1761-6).
Pept-ins were screened at a single dose of 25 μM (corresponds to final concentration of 30 mM Urea) and viability was measured after 2 and 4 days of exposure using the CellTiter Blue reagent. […] Hit rates and potencies for the other templates tested were considerably lower. […] One of these pept-ins (04-004-N001) harbours an APR window sequence derived from another APR of RAS, that is thus present in both G12 mutant and wild-type RAS, while the other four pept-ins (04-006-N001, 04-014-N001, 04-015-N001 and 04-033-N001) harbour an APR window sequence that is derived from and contains a G12V mutant site.

SW620 tumor = experiment: In vivo SW620 xenograft model of human KRAS G12V colorectal cancer; set-up: species or system mouse; settings: for average tumor volume at day 22, 20 μg dosing group / average tumor volume at day 22, 200 μg dosing group: intratumoral injection three times per week
Method: Female NCr nu/nu mice (8 to 12 weeks) were inoculated with 1×10^6 SW620 tumor cells in 50% Matrigel subcutaneously in the hind flank. The cell Injection Volume was 0.1 mL/mouse. When tumors reached an average size of 100-150 mm^3 a pair match was performed, and treatment started. Group sizes were N=6 for the non-treated group, N=5 for the vehicle groups and N=8 for the pept-in and positive control groups. Tumor growth was monitored by caliper measurement twice per week. Model response was monitored by Irinotecan dosed once per week at 100 mg/kg intraperitoneally for 3 weeks.
To assess whether the RAS-targeting pept-ins are able to attenuate growth of KRAS G12V-driven tumors in vivo, a subcutaneous xenograft model of human KRAS G12V colorectal cancer (SW620) was used. Once the tumors reached 100-150mm^3 in size, pept-ins were administered directly into the tumor mass by intratumoral injection three times per week during two weeks at two different doses (20 μg and 200μg).

[2] = tested on: RASless MEFs expressing KRAS G12V; experiment: Spheroid efficacy on RASless MEF panel; type: cell-based, mouse; settings: spheroids, 5 days of exposure
Method: (§3) For the single-dose viability screen on spheroid cultures, 1000 cells were seeded per well in black Ultra-Low Attachment (ULA) round-bottom 96-well plates (Corning) in 75 μL full growth medium. The day after seeding, spheroids were treated by addition of 50 µl of full growth medium containing the indicated test compounds so that the final concentration after adding was 25 μM. Technical duplicates were included for all experimental pept-in conditions 5 days after treatment viability was assessed using the CellTiter Glo 3D reagent (Promega) according to the manufacturer's instructions, with the following adaptation: 80 μL of reagent was added per well. Readout was performed on a Clariostar plate reader (BMG). For dose-response assays using RASless MEFs, cells were seeded at 1000 (G12V and G12C) or 2000 (wild-type and BRAF V600E) in Matrigel-containing medium, in order to obtain equally viable spheroids at start of treatment, 24 hrs later. […]
RAS mutant-selectivity on cellular efficacy was assessed using the isogenic RASless mouse embryonic fibroblast (MEF) panel. […] The panel assessed included the common clinical KRAS variants expressed as transgene (WT, G12V and G12C) and an additional cell line dependent on the expression of BRAF V600E for proliferation.
Efficacy of RAS-targeting pept-ins on MEFs growing as spheroids was assessed after 5 days of exposure. […]

[3] = tested on: NCI-H441 cells growing as suspension spheroid cultures; experiment: Single-dose viability screen on NCI-H441 suspension spheroid cultures (3D, CellTiter Glo 3D); type: cell-based, human; settings: 25 μM single dose, 5 days
Method: as §3, with “(BMG).” for “(BMG). For dose-response assays using RASless MEFs, cells were seeded at 1000 (G12V and G12C) or 2000 (wild-type and BRAF V600E) in Matrigel-containing medium, in order to obtain equally viable spheroids at start of treatment, 24 hrs later.”
As previous reports have shown that adherent growth of KRAS mutant cells lines might attenuate their sensitivity to KRAS inhibition or knockdown (Fujita-Sato et al. Cancer Res. 2015, vol. 75, 2851-62; Patricelli et al. Cancer Discov. 2016, vol. 6, 316-29; Vartanian et al. J Biol Chem. 2013, vol. 288, 2403-13), we complemented the screen on adherently growing NCI-H441 cells with a screen on suspension spheroid cultures of the same cell line. […] Viability of the spheroid cultures was determined after 5 days of exposure using the CellTiter Glo 3D reagent from Promega. […]

Compound: 04-006-N007: biotinylated version of a biologically active pept-in harbouring an APR window containing the G12V mutant site (KVVVGAVKGSKVVVGAVK; also: biotinylated, site not given here)
pull-down of G12V mutant KRAS (G12V mutant KRAS): notable pull-down was only observed for the G12V mutant KRAS

pull-down of G12C mutant KRAS (G12C mutant KRAS): notable pull-down
pull-down of G12V mutant KRAS (G12V mutant KRAS): notable pull-down
Compound: 04-015-N026: biotinylated version of a biologically active pept-in harbouring an APR window containing the G12V mutant site (KVVVGAVGKGSKVVVGAVGK; also: biotinylated, site not given here)

Compound: 04-033-N003: biotinylated version of a biologically active pept-in harbouring an APR window containing the G12V mutant site (KVVVGAVGVGKGSKVVVGAVGVGK; also: biotinylated, site not given here)
pull-down of G12V mutant KRAS (G12V mutant KRAS): notable pull-down was only observed for the G12V mutant KRAS

Compound: CC(=O)N[C@@H](CCCCN)C(=O)N[C@H](C(=O)N[C@H](C(=O)N[C@H](C(=O)NCC(=O)N[C@@H](C)C(=O)N[C@H](C(=O)NCC(=O)N[C@@H](CCCCN)C(=O)NCC(=O)N[C@@H](CO)C(=O)N[C@@H](CCCCN)C(=O)N[C@H](C(=O)N[C@H](C(=O)N[C@H](C(=O)NCC(=O)N[C@@H](C)C(=O)N[C@H](C(=O)NCC(=O)N[C@@H](CCCCN)C(N)=O)C(C)C)C(C)C)C(C)C)C(C)C)C(C)C)C(C)C)C(C)C)C(C)C [04-015-N001]
cytotoxicity [1]: ≥ 75%
average tumor volume at day 22, 20 μg dosing group (SW620 tumor): significant reduction in average tumor volume
average tumor volume at day 22, 200 μg dosing group (SW620 tumor): significant reduction in average tumor volume
reduction in tumor growth (comparison between pept-ins) (SW620 tumor; intratumoral injection, 20 μg and 200 μg): strongest reduction in tumor growth

Compound: Ac-KLSVFAIKGSKLSVFAIK-NH2 [04-004-N001]
cytotoxicity [1]: ≥ 75%
average tumor volume at day 22, 20 μg dosing group (SW620 tumor): only significant for the 200 μg dosing group
average tumor volume at day 22, 200 μg dosing group (SW620 tumor): significant
efficacy on MEFs expressing KRAS G12V [2]: notable increased efficacy

Compound: Ac-KLVVVGAVKGSKLVVVGAVK-NH2 [04-014-N001]
activity in the spheroid setting [3]: did not display activity
cytotoxicity [1]: ≥ 75%

Compound: Ac-KVVVGAVGVGKGSKVVVGAVGVGK-NH2 [04-033-N001]
cytotoxicity [1]: ≥ 75%

Compound: Ac-KVVVGAVKGSKVVVGAVK-NH2 [04-006-N001]
cytotoxicity [1]: ≥ 75%
